Measured values reported in US20250115578A1, “AROMATIC FUSED RING NAV1.8 INHIBITOR, AND USE THEREOF” (CHENGDU KANGHONG PHARMACEUTICAL CO., LTD., priority 2022, published 2025).
Converted amounts (≈) assume the structure as drawn. Read-outs that look alike come from different tables or passages of the source.

How the values were obtained:
[1] = Assay of kinetic solubility; assay type: physicochemical; settings: aqueous buffer, kinetic from dmso stock, pH 3.5 phosphate buffer, 25° C.
Protocol: The stock solutions of the test compound and the standard progesterone were prepared in DMSO at the concentration of 10 mM.
30 μL of stock solutions at 10 mM of the test compounds and standard substance were placed in order into their proper 96-well plate. 970 μL phosphate buffer at the specified pH was added to the proper vial of the sample plate. The assay was performed in duplicate. A stirring stick was added to each vial and the teflon/silicone plug was capped. The sample tray was then placed in the Eppendorf Thermomixer Comfort and shaken at 1100 RPM at 25° C. for 2 hours. After 2 hours, plugs were removed, a big magnet was used to remove the stirring sticks, and samples were transferred from the sample plate to the filter plate. Vacuum pump was used to create negative pressure and filtered the samples. Transferred 5 μL of the filtrate to the new sample plate, then added 5 μL DMSO and 490 μL water/acetonitrile (V/V=1/1) to dilute the solvent. The dilution factor may be adjusted according to the solubility values of the substances to be tested or the strength of its LC-MS signal response.
From the 10 mM DMSO stock solution, 15 μL of that was transferred into the empty plate and 485 μL DMSO was added to prepare a 300 μM standard solution. From the 300 μM standard solution plate, 5 μL of that was transferred to another empty plate and 5 μL phosphate buffer at specified pH and 490 μL water/acetonitrile (V/V=1/1) dilution solvent were added to the standard solution to get a final concentration of 3 μM. The concentration of the standard solution may be adjusted according to the strength of its LC-MS signal response.
The sample plate was placed into the sample tray of the automatic sampler and the samples were evaluated by LC-MS/MS analysis.
All calculations were carried out by Microsoft Excel.
The sample filtrate was analyzed and quantified against a standard of known concentrations using LC-MS spectral peaks to identify and quantify. The solubility values of the control drug and the compounds to be tested were calculated as the following formula: • [Sample]: concentration of the sample • AREASample: peak area of the sample • INJ VOLStd: standard sample injection volume • DFSample: sample dilution factor • [STD]: standard substance concentration • AREAStd: peak area of standard substance • INJ VOLSample: sample injection volume

[2] = system: postoperative pain model in rats; test: Efficacy test in postoperative pain model in rats (mechanical allodynia, PWT); assay type: in vivo, Sprague-Dawley male rats; settings: single oral 30 mg/kg, at 2 h and 4 h after administration
Protocol: Sprague-Dawley male rats, purchased from Zhejiang Vital River Laboratory Animal Technology Co., LTD
Compounds of the example 10, 14, 16, 31 of the invention were weighted and prepared into solutions of 3 mg/mL using 5% DMSO (Anhui Senrise Technologies Co., Ltd)+30% Solutol HS15 (Beijing Ouhe Technology Co., LTD.)+65% water for injection, and administered at a volume of 10 mL/kg by gavage. The dosage was 30 mg/kg.
Animals were anesthetized with Zoletil 50+ Xylazine Hydrochloride (20 mg/kg+8 mg/kg, intraperitoneally injected). The surgical area on the plantar skin of the left hind paw was disinfected three times with iodophor and 70% ethanol, and the surgery was started after the skin was dry.
A longitudinal incision about 1 cm was made towards the toes starting from 0.5 cm away from the heel of the left hind paw. After the skin was incised, the flexor digitorum brevis was raised and longitudinal blunt injury was caused. After hemostasis by pressing, the wound was sutured. After surgery, animals were placed on an electric warm pad and 5 mL of physiological saline was injected subcutaneously to prevent dehydration. 24 h after modeling, all animals (including the normal control group) were tested for base mechanical allodynia (PWT). The modeling animals without mechanical hypersensitivity (PWT greater than 5 g) were excluded and […] were selected and randomly divided into 5 groups, with 9 animals in each group except 5 in the normal group (negative control group).
The animals were weighed and administered orally at a volume of 10 mL/kg. Except normal control animals, other animals were given a single dose of compounds, and mechanical allodynia was performed by test fibers on all groups of animals at 1 h, 2 h and 4 h after dosing. The rats were placed individually in a plexiglass box with a grid at the bottom to ensure that the paws of the rats could be tested. The rats would acclimate for 15 minutes before the test. After the acclimation was completed, the test fibers were used to test on the plantar center of the rat's left hind paw. Pressed the test fiber vertically against the skin and applied force to bend the fiber for 6 to 8 seconds, with 5 second intervals between each test. The rapid withdrawal of the animal's paws during the test was recorded as a pain response. The animal's paw withdrawal when the fibers left the animal's skin was also recorded as a pain response. If the animal moves or walks around, it's not recorded as a pain response, and the test should be repeated.
Mechanical hyperalgesia was expressed as the paw withdrawal threshold (PWT) in the rat behavioral test, which was calculated according to the following formula:
50% response threshold (g)=(10^(Xf+kδ)/10,000 • Xf=final test fiber value used in the test • k=table value (Chaplan et al. 1994, page 62) • δ=mean deviation
Data were collected with excel software and analyzed with Prism 7.0 (Graph pad software, Inc.) software by two-way ANOVA followed by Dunnett multiple comparison test.

hNav1.8 = hNav1.8 (Homo sapiens (Human), UniProt Q9Y5Y9); test: Manual patch clamp, Method 1 (CHO cell line stably expressing hNav1.8); assay type: cell-based; settings: 100 nM; Method 1, CHO-hNav1.8; read-out: Inhibition rate of hNav1.8
Text: The patch clamp technique is known as the “gold standard” for studying ion channels, and it uses glass microelectrodes to seal the cell membrane to measure the currents of various membrane channel. […] Patch clamp technology can evaluate the inhibition strength of different compounds on different states of Navs by measuring the changes of membrane channel currents after different compounds bind to different states of Navs.
The representative compounds of the present invention used stable CHO or HEK293 cell lines transfected with specific ion channels to measure the effect of the compounds on Nav1.8 currents by manual patch clamp test, to evaluate their inhibition strength.
The assay protocol of manual patch clamp is as follows:
CHO cell lines with stable expression of hNav1.8 were cultured in F12 medium containing 10% fetal bovine serum at a constant temperature of 37° C., and the carbon dioxide concentration was maintained at 5%. The old culture medium was removed and washed once with PBS, then 1 mL 0.25%-Trypsin-EDTA solution was added and incubated at 37° C. for 1 min. When the cells were detached from the bottom of the dish, 5 mL of the complete medium preheated at 37° C. was added, and the aggregated cells were separated by gently blowing with a straw. The cell suspension was transferred into a sterile centrifuge tube and centrifuged at 1000 rpm for 5 min to collect cells. The cells were then inoculated into a cell culture dish with a diameter of 6 cm (2.5×10^5 cells/petri dish, 5 mL medium) for expansion or maintenance.
In order to maintain the electrophysiological activity of the cells, the cell density must be less than 80%.
The cells were separated with 0.25%-Trypsin-EDTA before the assay, and 5×10^3 cells were seeded on a cover slip and cultured in a 24-well plate (final volume: 500 μL) for 18 h. Then the assay was conducted.
The compounds prepared in the examples of the present invention were dissolved in dimethyl sulfoxide (DMSO) and prepared into DMSO stock solution with a concentration of 10 mM for assay. And it was diluted to various concentrations with extracellular solution (140 mM NaCl, 3.5 mM KCl, 1 mM MgCl2, 2 mM CaCl2), 10 mM Glucose, 10 mM HEPES, 1.25 mM NaH2PO4, pH=7.4 regulated by NaOH), and the final concentration of DMSO in each compound sample was 0.10% or less.
A capillary glass pipette (BF150-86-10, Sutter Instruments) was pulled into a recording electrode with a micropipette puller (P97, Sutter Instruments). The micromanipulator (MP285, Sutter Instruments) was manipulated under an inverted microscope (IX71, Olympus) to make the recording electrode contact the cell and negative pressure suction was applied to achieve a GQ seal. Then, rapid capacitance compensation was performed, and negative pressure was continued, cell membrane was broken by suction, and whole cell recording mode was formed. Then the slow capacitance was compensated and the membrane capacitance and series resistance were recorded without leakage compensation. When the whole cell recording current was stabilized, dosing was initiated, and the next concentration was detected after acting 5 minutes of each drug concentration. Multiple cells were independently repeated during the recording period. All electrophysiological assays were performed at room temperature. Specifically, 6 concentrations (measuring IC50) or 2 concentrations (preliminary screening) were set for each compound, and the percentage of inhibition of sodium channels was determined by calculating the relative percentage of peak current generated before and after each concentration compound treated cells, and the IC50 value or percentage of inhibition at a specific concentration was calculated using IGOR pro software.

animal models of pain = settings: carrageenan, CFA, CCI, SNL and acute mechanical pain models; cited from earlier work
[3] = system: STZ-induced diabetic neuropathic heat pain model; settings: cited from earlier work
CFA and SNL models = settings: cited from earlier work
postoperative toothache = settings: phase II; cited from earlier work

hNav1.8, sequence (Q9Y5Y9 whole entry): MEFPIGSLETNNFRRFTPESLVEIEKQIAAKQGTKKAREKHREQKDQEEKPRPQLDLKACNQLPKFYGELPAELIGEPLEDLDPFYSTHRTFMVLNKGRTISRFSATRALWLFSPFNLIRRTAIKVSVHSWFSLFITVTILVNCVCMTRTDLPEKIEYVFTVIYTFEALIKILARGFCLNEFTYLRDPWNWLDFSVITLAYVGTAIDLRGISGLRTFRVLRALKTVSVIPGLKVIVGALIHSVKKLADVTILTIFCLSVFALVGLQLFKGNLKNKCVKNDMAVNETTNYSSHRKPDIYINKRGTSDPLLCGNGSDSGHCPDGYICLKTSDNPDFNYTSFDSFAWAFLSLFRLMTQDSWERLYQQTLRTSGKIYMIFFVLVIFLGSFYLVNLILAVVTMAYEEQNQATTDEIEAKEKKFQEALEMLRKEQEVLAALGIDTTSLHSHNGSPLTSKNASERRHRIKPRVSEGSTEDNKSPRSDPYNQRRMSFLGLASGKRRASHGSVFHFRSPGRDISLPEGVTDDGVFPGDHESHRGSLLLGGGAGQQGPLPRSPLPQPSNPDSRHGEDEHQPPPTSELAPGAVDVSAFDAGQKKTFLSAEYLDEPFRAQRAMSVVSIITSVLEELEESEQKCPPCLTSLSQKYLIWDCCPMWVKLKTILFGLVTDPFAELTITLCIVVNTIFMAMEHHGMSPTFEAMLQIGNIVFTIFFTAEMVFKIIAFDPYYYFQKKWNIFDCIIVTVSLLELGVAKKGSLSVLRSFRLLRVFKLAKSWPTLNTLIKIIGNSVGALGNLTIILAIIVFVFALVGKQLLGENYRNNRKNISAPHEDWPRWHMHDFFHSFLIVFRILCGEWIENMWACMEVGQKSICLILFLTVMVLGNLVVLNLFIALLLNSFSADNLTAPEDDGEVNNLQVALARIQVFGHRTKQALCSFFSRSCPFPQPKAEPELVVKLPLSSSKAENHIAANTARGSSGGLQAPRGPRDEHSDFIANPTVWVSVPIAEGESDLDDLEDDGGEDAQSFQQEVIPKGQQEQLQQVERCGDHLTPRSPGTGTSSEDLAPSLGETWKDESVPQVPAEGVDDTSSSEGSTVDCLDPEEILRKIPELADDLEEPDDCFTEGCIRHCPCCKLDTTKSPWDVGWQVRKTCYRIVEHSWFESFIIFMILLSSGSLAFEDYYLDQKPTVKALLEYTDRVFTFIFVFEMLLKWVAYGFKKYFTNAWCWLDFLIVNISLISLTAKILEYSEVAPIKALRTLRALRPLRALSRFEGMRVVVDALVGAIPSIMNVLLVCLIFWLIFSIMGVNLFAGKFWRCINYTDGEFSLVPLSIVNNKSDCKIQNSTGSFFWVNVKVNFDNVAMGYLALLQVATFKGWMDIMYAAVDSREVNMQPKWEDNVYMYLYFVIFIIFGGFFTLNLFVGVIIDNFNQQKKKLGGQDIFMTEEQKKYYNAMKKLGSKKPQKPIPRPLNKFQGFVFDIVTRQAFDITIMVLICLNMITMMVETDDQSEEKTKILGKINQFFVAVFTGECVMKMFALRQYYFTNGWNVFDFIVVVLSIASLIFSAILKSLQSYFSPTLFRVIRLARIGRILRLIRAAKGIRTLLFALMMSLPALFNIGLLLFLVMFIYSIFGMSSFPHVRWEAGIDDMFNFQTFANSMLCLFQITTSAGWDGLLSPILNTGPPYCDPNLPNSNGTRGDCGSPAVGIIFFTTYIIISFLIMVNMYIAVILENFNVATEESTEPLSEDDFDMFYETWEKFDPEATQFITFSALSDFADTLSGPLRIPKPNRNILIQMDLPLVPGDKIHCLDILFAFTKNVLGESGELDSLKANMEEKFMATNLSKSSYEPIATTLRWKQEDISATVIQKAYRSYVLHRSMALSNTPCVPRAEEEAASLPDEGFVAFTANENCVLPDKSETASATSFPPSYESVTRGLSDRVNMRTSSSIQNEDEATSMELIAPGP

For `NS(=O)(=O)c1cc(NC(=O)c2cc(Cl)c(C(F)(F)F)cc2N2CCCC(F)(F)CC2)ccn1` [Example 31, 5-chloro-2-(4,4-difluoroazepan-1-yl)-N-(2-sulfamoylpyridin-4-yl)-4-trifluoromethylbenzamide, reference compound], the solubility kinetic at 2 h [1] was 0.69 µM (≈ 0.354 µg/mL), the “Inhibition of mechanical hyperalgesia induced by postoperative pain model” value [2] was “inhibited mechanical hyperalgesia” and the inhibition at 0.1 µM (hNav1.8) was 97.1%.

In the case of `COc1cc(NC(=O)c2ccc(-c3ccc(Cl)cc3)o2)cc(OC)c1` [Example A-803467], the “Pain relief effect compared with the model group” value (animal models of pain) is given as “exceeding 50%”, the “Duration of efficacy versus lidocaine” value ([3]; local injection of plantar) is given as “lasted longer” and the Efficacy versus lidocaine ([3]; local injection of plantar) is given as “equivalent”. For the same compound, the Efficacy versus lidocaine ([3]; systemic administration) was “superior to lidocaine”.

In the case of `CNC(=O)c1ccc(-c2cc(Cl)cc(Cl)c2Cl)c(N)n1` [PF-01247324], the Pain relief (CFA and SNL models) is given as “significant pain relief”.

For `COc1ccc(Cl)c(-c2ccc(NC(=O)c3ccnn3C)nc2N)c1` [PF-04531083], the Activity versus placebo (postoperative toothache) is listed as “did not show better activity than placebo”.
